The source of these data is US9611295B2, “Treatment of IL-17 mediated disease by blocking SEFIR-SEFIR interactions” (THE CLEVELAND CLINIC FOUNDATION, priority 2011, dated 2017).

Assay [1] has as its system IL-25-dependent signaling. In words: IL-25-dependent signaling in MEFs by Western blotting (pIκB, pJNK, pERK, pp38 MAPK). The class given is cell-based, mouse. The method, then:
FIG. 4 provides data showing that a cell-permeable CC′ loop decoy peptide disrupts the interaction between Act1 and IL-17RA and inhibits IL-17R and IL-25R signaling. FIG. 4A provides sequences of Antennapedia homeodomain (Antp) (SEQ ID NO: 11)and decoy peptides (SEQ ID NOS 23-25 and 17, respectively, in order of appearance) with the Antp sequence underlined. FIG. 4B provides flow cytometry results based on experiments in which MEFs expressing IL-17RB were incubated for 2 or 24 hours with the indicated FITC-tagged peptides (200 μM) and were then analyzed by flow cytometry. […] The percentages of FITC-positive cells in the treated samples are shown. FIG. 4C provides Western blot results of experiments in which HeLa cells were cotransfected with plasmids encoding FLAG-tagged mAct1 and V5-tagged IL-17RA and were cultured for 24 hours, after which they were incubated for 24 hours with the indicated peptides (200 μM). IL-17RA was immunoprecipitated from the samples with antibody against the V5 tag, and samples were then subjected to Western blotting analysis with the indicated antibodies. FIG. 4D provides Western blot results of experiments in which MEFs expressing IL-17RB were incubated with the indicated peptides (200 μM) for 24 hours after which they were treated with IL-17 or IL-25 and then analyzed by Western blotting with the indicated antibodies. FIG. 4E provides bar graphs showing the results of experiments in which MEFs expressing IL-17RB were incubated with the indicated peptides (200 μM) for 24 hours, after which they were treated with IL-17 or IL-25 for 3 hours. The abundances of Cxcl1 and Il13 mRNAs were then measured by real-time RT-PCR. […]
Decoy peptides are based on surface-exposed regions of the primary sequence of a protein to mimic a putative interaction interface. […] These decoy peptides were also tagged at their C-termini with fluorescein isothiocyanate (FITC) to enable their cell-penetrating efficiency to be evaluated by flow cytometric sanalysis. […]

Assay [2] has as its system IL-25-induced pulmonary inflammation. In words: IL-25-induced pulmonary inflammation in BALB/c mice. Format: in vivo, mouse. How it is done:
(§1) FIG. 5 provides bar graph and staining data showing that a cell-permeable CC′ loop decoy peptide inhibits IL-17- and IL-25-induced pulmonary inflammation. Wild-type (WT) female BALB/c mice (n=4 mice per group) were pretreated with DMSO, scrambled peptide, or the CC′ loop decoy peptide for 4 hours, after which they were administered saline, IL-17, or IL-25 intranasally. Mice were sacrificed and analyzed 16 hours after injection with IL-17 or 4 days after injection with IL-25. […] All experiments were performed three times. *P<0.05.
(§2) It has been shown that Act1 plays an essential role in IL-17- and IL-25-mediated pulmonary inflammation. Thus, the inventors examined whether the Act1 SEFIR domain CC′ loop decoy peptide ameliorated IL-17- and IL-25-induced airway inflammation in vivo. BALB/c mice were pretreated with scrambled peptide or with the Act1 SEFIR domain CC′ loop decoy peptide for 4 hours, after which we injected the mice intranasally with IL-17 or IL-25. […] Consistently, IL-17-induced lung and airway recruitment of granulocytes was reduced in mice pretreated with the CC′ loop decoy peptide compared to that in mice pretreated with the scrambled peptide (FIG. 5C). The lower grade of pulmonary inflammation in the mice treated with the CC′ loop decoy peptide correlated with the decreased IL-17-dependent expression of genes encoding MCP-1 and GM-CSF in the lung tissues (FIG. 5D). […] IL-25-induced lung and airway recruitment of granulocytes, predominantly eosinophils, as well as mucin production, as determined by Periodic acid-Schiff (PAS) staining, were reduced in mice pretreated with the CC′ loop decoy peptide compared to that in mice pretreated with the scrambled peptide (FIG. 5G). The decreased pulmonary inflammation in […] correlated with decreased expression of genes encoding the TH2-type cytokines IL-5 and IL-13 in the lungs (FIG. 5H).
(§3) Intranasal injection of mice with IL-17 and IL-25: Wild-type BALB/c female mice were pretreated with dimethyl sulfoxide (DMSO, the solvent for peptides), scrambled peptide, or the CC′ loop decoy peptide for 4 hours, after which they underwent intranasal administration of saline, IL-17 (4 μg/mouse), or IL-25 (4 μg/mouse). For IL-25-treated mice, decoy peptides were administrated daily through intranasal injection after pretreatment. Mice were anesthetized with isoflurane and sacrificed. BAL fluid was collected 16 hours after injection with IL-17 or 4 days after injection with IL-25. A total of 0.7 ml of HL-1 medium (BioWhittaker®) was used to obtain BAL fluid through trachea with a blunt needle and a 1-ml syringe. Cytospin slide preparations were obtained with a Shandon CytoSpin III Cytocentrifuge (Shandon/Thermo Scientific). Differential leukocyte counts were obtained on cytospin slide preparations after incubation with Diff Quik Giemsa stain. Cytokines in the BAL were analyzed by MultipleX plate (Invitrogen®). H&E and PAS staining were performed on lung tissues after fixation in 10% neutral-buffered formalin and paraffin embedding to detect pulmonary inflammation and for assessment of goblet cell metaplasia and mucin accumulation in airway epithelial cells.

For assay [3], the system named is IL-17-induced pulmonary inflammation. In words: IL-17-induced pulmonary inflammation in BALB/c mice. The class given is in vivo, mouse. How it is done: as §1, §2, §3
Where [4] appears, read: 4 hours pretreatment, intranasal IL-17, 16 hours, vs scrambled peptide.

“DRQIKIWFQNRRMKWKKLDEDEHGLHTKY [CC′ loop decoy peptide]”: the “IL-25-dependent signaling (pIκB, pJNK, pERK, pp38 MAPK)” value in assay [1] (MEFs expressing IL-17RB, peptides 200 μM, 24 hours) was “partly attenuated”. Besides, the “dose and time dependence of inhibition of IL-25-dependent signaling and gene expression” value in assay [1] (data not shown) is recorded as “dose-and time-dependent manner”. The “dose dependence of inhibition of IL-25-induced pulmonary inflammation” value in assay [2] (data not shown) is recorded as “dose-dependent manner”. For the same sequence, in assay [2] (intranasal IL-25, 4 days), the “IL-5 in BAL” value is recorded as “substantially attenuated” and the “IL-13 in BAL” value is “substantially attenuated”. The “IL-25-induced eosinophilia (eosinophils in BAL)” value in assay [2] (intranasal IL-25, 4 days, vs scrambled peptide, listed as Act1 SEFIR domain CC′ loop decoy peptide) was “substantially attenuated”. Moreover, in assay [2] (intranasal IL-25, 4 days, vs scrambled peptide, listed as CC′ decoy peptide), the “IL-25-induced eosinophilia (eosinophils in BAL)” value is “reduced accumulation”. For the same sequence, in assay [2] (vs scrambled peptide), the “IL-25-induced lung and airway recruitment of granulocytes, predominantly eosinophils (H&E)” value is given as “reduced”; the “mucin production (PAS staining)” value is “reduced”. Besides, in assay [3] (setting [4]), the “GM-CSF in BAL fluid” value is on record as “substantially reduced”, the “MCP-1 in BAL fluid” value was “substantially reduced” and the “neutrophil counts in BAL fluid” value is reported as “substantially reduced”. Further, the “neutrophil counts in BAL fluid” value in assay [3] (4 hours pretreatment, intranasal IL-17, 16 hours, vs scrambled peptide, listed as CC′ peptide) is “reduced accumulation”. Also, the “dose dependence of inhibition of IL-17-induced pulmonary inflammation” value in assay [3] (data not shown) was “dose-dependent manner”. For the same sequence, the “IL-17-dependent expression of genes encoding MCP-1 and GM-CSF in lung tissues” value in assay [3] (real-time RT-PCR) is “decreased”. The “IL-17-induced lung and airway recruitment of granulocytes (H&E)” value in assay [3] (vs scrambled peptide) is listed as “reduced”.
